Measurements from patent US20050250677A1, “Glycopeptide antibiotic derivatives” (priority 2002, published 2005).
Read-outs that look alike come from different tables or passages of the source.

Tests used:
HEL cells [1] = test system: HEL cells
HSV-2 (G) = assay: Anti-HSV-2 assay: virus-induced cytopathicity in HEL cell cultures
VZV (wild-type strains) = assay: Anti-VZV assay (wild-type strains): virus-induced cytopathicity in HEL cell cultures; type: cell-based, varicella-zoster virus; conditions: for EC50: HEL cell cultures
HSV-1 (KOS) = assay: Anti-HSV-1 assay: virus-induced cytopathicity in HEL cell cultures
HEL cells [2] = conditions: read-out: CC50 (HEL)
[3] = test system: SARS virus (strain Frankfurt-1); assay: microbe, parasite or virus in culture; type: cell-based, human corona (SARS) virus; conditions: SARS virus in Vero cells; read-out: EC50 SARS virus
Vero cells = conditions: read-out: CC50 Vero
CMV = assay: Anti-CMV assay: virus-induced cytopathicity in HEL cell cultures
HIV-1 (IIIB) = assay: Inhibition of HIV-1 (IIIB)-induced cytopathicity (giant cell formation) in CEM cells; type: cell-based; conditions: read-out: EC50 HIV-1 (concentration required to inhibit HIV-induced giant cell formation by 50%); HIV-1, CEM cell cultures
Description: (§1) A variety of glycopeptide antibiotic derivatives of vancomycin, eremomycin and teicoplanin including their aglycon derivatives were evaluated for their inhibitory activity against HIV-1 (IIIB) and HIV-2(ROD) in CEM cell cultures.

human lymphocyte CEM = assay: Cytostatic activity assay, CEM cells; type: cell-based; conditions: read-out: IC50 CEM (compound concentration required to inhibit tumor cell proliferation by 50%)
FCV = assay: Feline corona virus assay in Feline Crandel kidney cells (MTS); type: cell-based; conditions: FCV in FCK cells; read-out: EC50 FCV
Description: Feline Crandel kidney cells were seeded in 96-well microtiter plates at 24,000 cells/well. Then, 24 hrs later, an appropriate inoculum of FCV is added together with 5-fold dilutions of the test compounds. After 4 days, a MTS/PMS solution was added to each well. Following a 90 min incubation period at 37° C., the optical density of the wells was read at 498 nm in a microplate reader.

murine leukemia L1210 = assay: Cytostatic activity assay, L1210 cells; type: cell-based; conditions: read-out: IC50 L1210 (compound concentration required to inhibit tumor cell proliferation by 50%)
[4] = test system: human lymphocyte Molt4/clone 8; assay: Cytostatic activity assay, Molt4/clone 8 cells; type: cell-based; conditions: read-out: IC50 Molt4/C8 (compound concentration required to inhibit tumor cell proliferation by 50%)
HIV-2(ROD) = assay: Inhibition of HIV-2 (ROD)-induced cytopathicity (giant cell formation) in CEM cells; type: cell-based; conditions: read-out: EC50 HIV-2 (concentration required to inhibit HIV-induced giant cell formation by 50%); HIV-2, CEM cell cultures
Description: as §1

[5] = VZV strain OKA, read-out: EC50 VZV (OKA)
[6] = VZV strain YS, read-out: EC50 VZV (YS)
[7] = read-out: EC50 CMV AD-169, CMV strain AD-169, HEL cell cultures
[8] = read-out: EC50 CMV Davis, CMV strain Davis, HEL cell cultures
[9] = read-out: EC50 HSV-2 (G), HEL cell cultures
[10] = read-out: EC50 HSV-1 (KOS), HEL cell cultures

Compound | MTC (HEL) (HEL cells [1]) | MTC (HEL) (HEL cells [1]; anti-VZV table) | EC50 (VZV (wild-type strains); [5]) [µM] | EC50 (VZV (wild-type strains); [6]) [µM] | CC50 (HEL cells [2]; HEL cell proliferation) [µM] | CC50 (HEL cells [2]; HEL cells, anti-VZV table) [µM] | EC50 [3] [µM] | CC50 (Vero cells) [µM] | CC50 (FCK cells; read-out: CC50 FCK, FCK cells) [µM] | EC50 (HIV-1 (IIIB)) [µM] | IC50 (human lymphocyte CEM) [µM] | EC50 (FCV) [µM] | IC50 (murine leukemia L1210) [µM] | IC50 [4] [µM] | EC50 (HIV-2(ROD)) [µM] | EC50 (HSV-2 (G); [9]) [µM] | EC50 (HSV-1 (KOS); [10]) [µM] | further results
CC(C)CC(C(=O)NC1C(=O)NC(CC(N)=O)C(=O)NC2C(=O)NC3C(=O)NC(C(=O)NC(C(=O)O)c4cc(O)c(CN5CCN(Cc6ccc(-c7ccccc7)cc6)CC5)c(O)c4-c4cc3ccc4O)C(O)c3ccc(cc3)Oc3cc2cc(c3O)Oc2ccc(cc2Cl)C1O)N(C)C(=O)OC(C)(C)C (stereo not drawn) [Compound 98] | ≧20-200 μM | ≧20-200 μM | 2.3 | 1.3 | > 50 | > 50 |  |  |  |  |  |  |  |  |  |  |  | EC50 (HSV-2 (G); read-out: EC50 HSV-2): 24 µM; activity against VZV (VZV (wild-type strains)): pronounced activity; EC50 (HSV-1 (KOS); read-out: EC50 HSV-1): 24 µM
CCCCc1ccc(CN2CCN(C(=O)C3NC(=O)C4NC(=O)C(NC(=O)C5NC(=O)C6NC(=O)C(Cc7ccc(c(Cl)c7)Oc7cc5cc(c7O)Oc5ccc(cc5Cl)C4O)NC(=O)C(N)c4ccc(O)c(c4)Oc4cc(O)cc6c4)c4ccc(O)c(c4)-c4c(O)cc(O)cc43)CC2)cc1 (stereo not drawn) [Compound 124] |  | ≧5-100 μM | 0.34 | 0.22 |  | 71 | 15 | > 100 | 17 |  |  |  |  |  |  |  |  | MTC (HEL) (HEL cells [1]; anti-CMV table): ≧5-100 μM; CC50 (HEL cells [2]; HEL cells, anti-CMV table): 71 µM; anti-CMV activity (CMV): anti-CMV activity; EC50 (CMV; [7]): 2.4 µM; EC50 (CMV; [8]): 3.2 µM
CN(C)CCCNC(=O)C1NC(=O)C2NC(=O)C(NC(=O)C3NC(=O)C4NC(=O)C(Cc5ccc(c(Cl)c5)Oc5cc3cc(c5O)Oc3ccc(cc3Cl)C2O)NC(=O)C(N)c2ccc(O)c(c2)Oc2cc(O)cc4c2)c2ccc(O)c(c2)-c2c1cc(O)c(CN1CCN(Cc3ccc(-c4ccccc4)cc3)CC1)c2O (stereo not drawn) [Compound 28] |  | ≧5-20 μM | 2.5 | 2 |  | 105 | 16 | > 100 | 21 | 3.5 ± 0.7 | > 500 | > 50 | 318 ± 256 | > 500 | 8.5 ± 2.1 |  |  | 
Ristosaminylaglycon of ristomycin [Compound 88] |  |  |  |  | > 50 |  |  |  |  |  |  |  |  |  |  | > 200 | 120 | 
CC1(C)SC2C(NC(=O)C3NC(=O)C4NC(=O)C(NC(=O)C5NC(=O)C6NC(=O)C(Cc7ccc(c(Cl)c7)Oc7cc5cc(c7O)Oc5ccc(cc5Cl)C4O)NC(=O)C(N)c4ccc(O)c(c4)Oc4cc(O)cc6c4)c4ccc(O)c(c4)-c4c(O)cc(O)cc43)C(=O)N2C1C(=O)O (stereo not drawn) [Compound 145] |  |  | 3.9 | 2.8 | > 50 | > 50 |  |  |  |  |  |  |  |  |  | 48 | 48 | 
CN(Cc1ccc(Cl)cc1)Cc1c(O)cc2c(c1O)-c1cc(ccc1O)C1NC(=O)C3NC(=O)C4NC(=O)C(Cc5ccc(c(Cl)c5)Oc5cc3cc(c5O)Oc3ccc(cc3Cl)C(O)C(NC1=O)C(=O)NC2C(=O)O)NC(=O)C(N)c1ccc(O)c(c1)Oc1cc(O)cc4c1 (stereo not drawn) [Compound 115] | ≧20-200 μM | ≧20-200 μM | > 5 | 8.9 | 50 | 50 |  |  |  |  |  |  |  |  |  | > 16 | 80 | 
CCCCc1ccc(CNCc2c(O)cc3c(c2O)-c2cc(ccc2O)C2NC(=O)C4NC(=O)C5NC(=O)C(Cc6ccc(c(Cl)c6)Oc6cc4cc(c6O)Oc4ccc(cc4Cl)C(O)C(NC2=O)C(=O)NC3C(=O)O)NC(=O)C(NC(=O)OC(C)(C)C)c2ccc(O)c(c2)Oc2cc(O)cc5c2)cc1 (stereo not drawn) [Compound 146] | ≧5-50 μM | ≧5-50 μM | 2.5 |  | > 50 | > 50 |  |  |  |  |  |  |  |  |  | 9.6 | 9.6 | MTC (HEL) (HEL cells [1]; anti-CMV table): ≧5-50 μM; activity against HSV-2 (HSV-2 (G)): activity; activity against HSV-1 (HSV-1 (KOS)): activity; CC50 (HEL cells [2]; HEL cells, anti-CMV table): > 50 µM; EC50 (CMV; [7]): > 20 µM
CCCCOc1ccc(CNCCOc2c3cc4cc2Oc2ccc(cc2Cl)C(O)C2NC(=O)C(NC(=O)C4NC(=O)C4NC(=O)C(Cc5ccc(c(Cl)c5)O3)NC(=O)C(NCc3ccc(OCCCC)cc3)c3ccc(O)c(c3)Oc3cc(O)cc4c3)c3ccc(O)c(c3)-c3c(O)cc(O)cc3C(C(=O)O)NC2=O)cc1 (stereo not drawn) [Compound 132] | ≧5-20 μM | ≧5-20 μM | 0.97 |  | 40 | 40 |  |  |  |  |  |  |  |  |  | 9.6 | 9.6 | activity against HSV-2 (HSV-2 (G)): activity; activity against HSV-1 (HSV-1 (KOS)): activity
CCCCOc1ccc(CN2CCN(C(=O)C3NC(=O)C4NC(=O)C(NC(=O)C5NC(=O)C6NC(=O)C(Cc7ccc(c(Cl)c7)Oc7cc5cc(c7O)Oc5ccc(cc5Cl)C4O)NC(=O)C(N)c4ccc(O)c(c4)Oc4cc(O)cc6c4)c4ccc(O)c(c4)-c4c(O)cc(O)cc43)CC2)cc1 (stereo not drawn) [Compound 125] |  | ≧2-20 μM | 0.32 | 0.25 |  | 44 | 10 | > 100 | 14 |  |  | 1.6 |  |  |  |  |  | MTC (HEL) (HEL cells [1]; anti-CMV table): ≧2-20 μM; CC50 (HEL cells [2]; HEL cells, anti-CMV table): 44 µM; anti-CMV activity (CMV): anti-CMV activity; EC50 (CMV; [7]): 1.9 µM; EC50 (CMV; [8]): 2.8 µM
CCCCCCCCCC(=O)N1CCN(C(=O)C2NC(=O)C3NC(=O)C(NC(=O)C4NC(=O)C5NC(=O)C(Cc6ccc(c(Cl)c6)Oc6cc4cc(c6O)Oc4ccc(cc4Cl)C3O)NC(=O)C(N)c3ccc(O)c(c3)Oc3cc(O)cc5c3)c3ccc(O)c(c3)-c3c(O)cc(O)cc32)CC1 (stereo not drawn) [Compound 40] | ≧5-20 μM | ≧5-20 μM | 0.29 | 0.21 | > 50 | > 50 |  |  |  | 1.5 ± 0.7 | 44 ± 0.42 |  | 38.7 ± 3.4 | 32.3 | 4.5 ± 2.1 | 9.6 | 9.6 | 
NCCCCCCNC(=O)C1NC(=O)C2NC(=O)C(NC(=O)C3NC(=O)C4NC(=O)C(Cc5ccc(c(Cl)c5)Oc5cc3cc(c5O)Oc3ccc(cc3Cl)C2O)NC(=O)C(N)c2ccc(O)c(c2)Oc2cc(O)cc4c2)c2ccc(O)c(c2)-c2c(O)cc(O)cc21 (stereo not drawn) [Compound 41] |  | ≧20-50 μM | > 5 | 12 |  | 190 | 44 | > 100 | > 50 | 15 | > 500 | 21 | > 500 | > 500 | 17.5 ± 3.5 |  |  | 
COC(=O)C1NC(=O)C2NC(=O)C(NC(=O)C(NC(=O)OC(C)(C)C)c3cc(Oc4ccc(CC(NC(=O)OCc5ccccc5)C(=O)O)cc4Cl)c(O)c(c3)Oc3ccc(cc3Cl)C2O)c2ccc(O)c(c2)-c2c1cc(O)c(CNC1C3CC4CC(C3)CC1C4)c2O (stereo not drawn) [Compound 53] |  |  |  |  |  |  | 29 | > 100 |  | 17 ± 3.5 | 240 ± 13 | 36 | 95 ± 10 | 122 ± 13 | 11 ± 5.7 |  |  | CC50 (FCK cells): ≥ 100 µM
